Assay results reported in PubChem BioAssay (NCI).
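48-hour exposure; five concentrations; linearly interpolated endpoints. Abbreviation: GI50, concentration required for 50% inhibition of growth. TGI marks complete inhibition of growth.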

How the values were obtained:
Assay in all cases: NCI-60 cell line screen, 48 h
NCI-H522 lung = tested on: NCI-H522 lung
OVCAR-3 ovarian = tested on: OVCAR-3 ovarian
SK-MEL-28 melanoma = tested on: SK-MEL-28 melanoma
KM12 colon = tested on: KM12 colon
DMS 273 small cell lung = tested on: DMS 273 small cell lung
CCRF-CEM leukemia = tested on: CCRF-CEM leukemia
SF-268 CNS = tested on: SF-268 CNS
MALME-3M melanoma = tested on: MALME-3M melanoma
HOP-18 NSCLC = tested on: HOP-18 NSCLC
T-47D breast = tested on: T-47D breast

Structure (SMILES) | TGI (NCI-H522 lung) | TGI (OVCAR-3 ovarian) | TGI (SK-MEL-28 melanoma) | TGI (KM12 colon) | TGI (DMS 273 small cell lung) | TGI (CCRF-CEM leukemia) | TGI (SF-268 CNS) | TGI (MALME-3M melanoma) | TGI (HOP-18 NSCLC) | GI50 (NCI-H522 lung) | GI50 (KM12 colon) | GI50 (CCRF-CEM leukemia) | GI50 (SF-268 CNS) | GI50 (T-47D breast) | GI50 (OVCAR-3 ovarian) | GI50 (SK-MEL-28 melanoma) | GI50 (DMS 273 small cell lung) | GI50 (MALME-3M melanoma) | TGI (T-47D breast) | GI50 (HOP-18 NSCLC)
NC(=O)c1c[se]c(C2OC(COP(=O)(O)CP(=O)(O)OCC3OC(n4cnc5c(N)ncnc54)C(O)C3O)C(O)C2O)n1 (centres undefined) | > 100 µM | > 100 µM | > 100 µM | > 100 µM | > 100 µM | > 100 µM | > 100 µM | > 100 µM | > 100 µM |  |  |  |  |  |  |  |  |  |  | 
CCCCCCCCCC(=O)Oc1cccc2onc(C)c12 | > 100 µM | > 100 µM | > 100 µM | > 100 µM | > 100 µM | > 100 µM | > 100 µM | > 100 µM | > 100 µM |  |  |  |  |  |  |  |  |  |  | 
COC(=O)C1(F)C(=O)NC(=O)NC1OC (centres undefined) | > 100 µM | > 100 µM | > 100 µM | > 100 µM | > 100 µM | > 100 µM | > 100 µM | > 100 µM | > 100 µM |  |  |  |  |  |  |  |  |  |  | 
c1ccc(NC[Si]23OCCN(CCO2)CCO3)cc1 | > 100 µM | > 100 µM | > 100 µM | > 100 µM | > 100 µM | > 100 µM | > 100 µM | > 100 µM | > 100 µM |  |  |  |  |  |  |  |  |  |  | 
Cc1nnc(N=Nc2c(O)[nH]c3ccccc23)n1N | > 100 µM | > 100 µM | > 100 µM | > 100 µM | > 100 µM | > 100 µM | > 100 µM | > 100 µM | > 100 µM |  |  |  |  |  |  |  |  |  |  | 
CC1(C)CC(=O)c2c(oc3cc(O)c(O)cc23)C1 | 24.3 µM |  |  | 77.4 µM | > 100 µM | 92 µM | > 100 µM | 94.6 µM | > 100 µM |  |  |  |  |  |  |  |  |  |  | 
CC(c1ccccc1)N1CC(C)(c2ccccc2)N(O)C(c2ccccc2)C1C (centres undefined) | 32.3 µM | 40.8 µM | 21.9 µM | > 100 µM | > 100 µM | 31 µM | 31.3 µM | 66.2 µM | 51.2 µM |  |  |  |  |  |  |  |  |  |  | 
Cc1cc([N+](=O)[O-])c(S(=O)(=O)c2ccccc2)c([N+](=O)[O-])c1 | 3.14 µM | 11.4 µM | 40.9 µM | 32.1 µM | 32.1 µM | > 28 µM | 50.4 µM | 27.9 µM | 29.6 µM |  |  |  |  |  |  |  |  |  |  | 
CC[C@@]1(O)C(=O)OCc2c1cc1n(c2=O)Cc2cc3c(N)cccc3nc2-1 | 1.35 µM | 1.42 µM | 16.3 µM | 11.6 µM | 0.111 µM |  | 3.06 µM | 1.88 µM | 7.64 µM | 0.0234 µM | 0.0151 µM | 0.00158 µM | 0.00728 µM | 0.00662 µM |  |  |  |  |  | 
COc1ccc(CC2=NCCc3cc(OC)c(OC)cc32)cc1Br | 86.6 µM |  | > 100 µM | 84.4 µM | 33.7 µM | > 100 µM | > 100 µM | 70.4 µM | > 100 µM |  |  |  |  |  |  |  |  |  |  | 
C/C(=N/NC(=O)CC(=O)N(C(=O)c1ccccc1Cl)c1ccc(C)cc1)c1cc2ccccc2oc1=O | > 100 µM | > 100 µM | > 100 µM | > 100 µM | > 100 µM | > 100 µM | > 100 µM | > 100 µM | > 100 µM |  |  |  |  |  |  |  |  |  |  | 
C=CC1=CC(C)C[C@]1(O)C(=O)OC (some centres undefined) | > 100 µM |  |  |  |  |  |  |  | > 100 µM |  | > 100 µM | > 100 µM | > 100 µM |  | > 100 µM | > 100 µM | > 100 µM | > 100 µM |  | 
CC(=O)OCCC(O[Si](c1ccccc1)(c1ccccc1)C(C)(C)C)C(C)(C)O (centres undefined) | 46.8 µM | 62.2 µM | > 100 µM | 55 µM | > 100 µM | 67.6 µM | > 100 µM | > 100 µM | 91.4 µM |  |  |  |  |  |  |  |  |  |  | 
COc1cc([C@H]2c3[nH]c4ccccc4c3C[C@H]3COC(=O)N32)cc(OC)c1O |  |  | > 80 µM | 20.7 µM | 44.2 µM | 12.4 µM | > 72.1 µM | > 100 µM | > 100 µM |  |  |  |  |  |  |  |  |  | > 100 µM | 
COc1ccc2[nH]c3c(=O)[nH]ncc3c2c1 | > 100 µM | > 100 µM | > 100 µM | > 100 µM | > 100 µM | > 100 µM | > 100 µM | > 100 µM | > 100 µM |  |  |  |  |  |  |  |  |  |  | 
NC(=O)C(=O)n1ncc(Cl)c(Cl)c1=O | 20.6 µM | 50.8 µM | 30.5 µM | 62.5 µM | > 100 µM | 26.1 µM | > 92.9 µM | 38.7 µM | 35.1 µM |  |  |  |  |  |  |  |  |  | > 100 µM | 
CCN(CC)CCCCC1CCN(CC(=O)N2c3ccccc3NC(=O)CC2C)CC1 (centres undefined) | > 100 µM | > 100 µM | > 100 µM | > 100 µM | > 100 µM | > 100 µM | > 100 µM | > 100 µM | > 100 µM |  |  |  |  |  |  |  |  |  |  | 
CC(C)(CO)N=Cc1ccccc1[O-].CC(C)(CO)N=Cc1ccccc1[O-].[Co+2] | 90.5 µM | > 100 µM | > 100 µM | > 100 µM | > 100 µM | 68.2 µM | > 100 µM | > 100 µM | > 100 µM | 30.4 µM | > 97.8 µM | 5.86 µM | 46.3 µM | 10.1 µM | 36.3 µM | 58.6 µM | > 85.9 µM | 49.5 µM | > 100 µM | 29.4 µM
